Patent US20060154889A1, “Polyfluorinated nucleoside analogs and methods of use thereof” (priority 2004, published 2006)
Read-outs that look alike come from different tables or passages of the source.

How the values were obtained:
[1] = test system: XACAGCTGT; assay: Dangling-end thermal denaturation, sequence XACAGCTGT (Table 1); assay type: physicochemical; conditions: for Tm: 1 M NaCl, 10 mM sodium phosphate pH 7.0, 5.0 μM DNA-strand; for ΔΔG stacking: difference from core duplex; for ΔTm: vs core duplex
Protocol: (§1) The dangling-end experimental method was utilized to evaluate the ability of the fluorinated aromatic base analogues to stabilize DNA duplexes when substituted directly adjacent to the helix. The relative stabilizations were measured by comparison of the energetics for helix-coil melting transition of the “core “duplex (lacking any “dangling “nucleotide) to that containing the extra nucleotide. Five short self-complementary sequence contexts were used; the sequences were chosen because they had been shown previously to be well-behaved thermodynamically in the dangling-end configuration. Data from two of the contexts are shown in Table 1, and data for the remaining three show similar trends. By use of these five contexts we were able to compare stacking effects of the base analogues with all four neighboring DNA bases in the helix. Methods for thermodynamic measurements. Thermal denaturation. […] Solutions were then heated to 90° C. for 5 minutes and annealed by slowly cooling to room temperature and then to 0° C. […] Calculations.

[2] = test system: (dCGCGCG)2 core duplex; assay: Dangling-end thermal denaturation, sequence XCGCGCG (Table 1); assay type: physicochemical; conditions: for Tm / −ΔG37 / −ΔH / −ΔS / ΔΔG stacking / ΔTm: XCGCGCG; for Tm: 1 M NaCl, 10 mM sodium phosphate pH 7.0, 5.0 μM DNA-strand; for ΔΔG stacking: difference from core duplex; for ΔTm: vs core duplex; for ΔΔG stacking (stability contributed): (dCGCGCG)2 core duplex
Protocol: as §1

[3] = test system: XTGAGCTCA; assay: Dangling-end thermal denaturation, sequence XTGAGCTCA (Table 2); assay type: physicochemical
Protocol: (§2) The dangling-end experimental method was utilized to evaluate the ability of the fluorinated aromatic base analogues to stabilize DNA duplexes when substituted directly adjacent to the helix. The relative stabilizations were measured by comparison of the energetics for helix—coil melting transition of the “core “duplex (lacking any “dangling “nucleotide) to that containing the extra nucleotide. Five short self-complementary sequence contexts were used; the sequences were chosen because they had been shown previously to be well-behaved thermodynamically in the dangling-end configuration. Data from two of the contexts are shown in Table 1, and data for the remaining three show similar trends. By use of these five contexts we were able to compare stacking effects of the base analogues with all four neighboring DNA bases in the helix.
(§3) Methods for thermodynamic measurements. Thermal denaturation. […] Solutions were then heated to 90° C. for 5 minutes and annealed by slowly cooling to room temperature and then to 0° C.

[4] = test system: XGTAGCTAC; assay: Dangling-end thermal denaturation, sequence XGTAGCTAC (Table 2); assay type: physicochemical
Protocol: as §2, §3

[5] = test system: XAGCGCT; assay: Dangling-end thermal denaturation, sequence XAGCGCT (Table 2); assay type: physicochemical
Protocol: as §2, §3

[6] = Octanol-water partitioning of free nucleosides
Protocol: We explicitly examined hydrophobicity of the four nucleosides by partitioning between 1-octanol and water.
Octanol-water partitioning. The experimental solvent partitioning studies for free nucleosides were carried out as described. Experiments were carried out in triplicate and the results averaged to increase accuracy.

[7] = test system: 5′XCGCGCG3′; assay: Dangling end stacking in 6-bp self-complementary DNA (Table S3); assay type: physicochemical; conditions: for ΔG°37 (Van't Hoff) / ΔG°37 (avg.) / ΔG°37 (fits) / ΔH° (van't Hoff) / ΔS° (Van't Hoff) / Tm: 5′XCGCGCG3′ dangling base; for Tm: 1 M NaCl, 10 mM phosphate buffer (pH 7.0), 0.1 mM EDTA, 5.0 μM; for stacks more favorably than parent hydrocarbon: ^FB vs B, ^FI vs I
Protocol: To seek evidence for the origins of this selectivity, we examined individual properties of the four nonpolar nucleoside analogues. Stacking was evaluated by the standard dangling end approach using a 6-bp self-complementary DNA.
Calculations. […] (Table 4 and Table 5)

[8] = average from fits to individual melting curves
[9] = 2,4,6- vs 2,4,5-substituted case

Molecule	Tm [1] [°C]	−ΔG37 ([1]; Van't Hoff plots) [kcal]	−ΔH ([1]; Van't Hoff plots) [kcal]	−ΔS ([1]; Van't Hoff plots) [eu]	−ΔG37 [1, 8] [kcal]	ΔΔG stacking [1]	ΔTm [1] [°C]	Tm [2] [°C]	−ΔG37 ([2]; Van't Hoff plots) [kcal]	−ΔH ([2]; Van't Hoff plots) [kcal]	−ΔS ([2]; Van't Hoff plots) [eu]	−ΔG37 [2, 8] [kcal]	ΔΔG stacking [2]	ΔTm [2] [°C]	−G37 ([3]; marker c) [kcal]	−H ([3]; marker c) [kcal]	−S ([3]; marker c) [eu]	−G37 ([3]; marker d) [kcal]	−H ([4]; marker c) [kcal]	−S ([4]; marker c) [eu]	also measured
OC[C@H]1OC(c2ccc(F)cc2)C[C@@H]1O (stereo partly drawn) [4-fluorophenyl, 1′-(4-fluorophenyl)-2′-deoxy-D-ribose]	48.7	9.9 ± 0.1	66.6	183	9.6 ± 0.1	1.8 ± 0.1	8.7	51.2	10.3 ± 0.3	64.9	175	9.9 ± 0.2	2.0 ± 0.2	9.8	–	–	–	–	–	–	–
OCC1OC(c2cc(F)c(F)cc2F)CC1O (stereo not drawn) [2,4,5-trifluorophenyl]	48.9	10.1 ± 0.2	67.8	186	9.7 ± 0.1	1.9 ± 0.2	9.0	52.2	10.1 ± 0.3	55.0	145	10.0 ± 0.1	2.0 ± 0.2	10.8	9.2	53.8	144	9.1	72.5	204	G stacking [3]: 1.5; −G37 ([4]; marker d): 9.1 kcal
OC[C@H]1O[C@@H](n2ccc3c(F)c(F)c(F)c(F)c32)C[C@@H]1O [^FI, 1′,2′-dideoxy-β-1′-(N-4,5,6,7-tetrafluoroindole)-D-ribofuranose]	–	–	–	–	–	–	–	–	–	–	–	–	–	–	–	–	–	–	–	–	log P [6]: 1.66 (0.10); ΔG°37 (Van't Hoff) [7]: -11.1 ± 0.2 kcal; ΔG°37 (avg.) [7]: -11.2 ± 0.2 kcal; ΔG°37 (fits) [7]: -11.3 ± 0.2 kcal; ΔH° (van't Hoff) [7]: -52.6 kcal; ΔS° (Van't Hoff) [7]: −134 eu; Tm [7]: 59.3 °C; stacks more favorably than parent hydrocarbon [7]: 1.1 kcal/mol
1′,2′-dideoxy-β-1′-(N-indole)-D-ribofuranose [reference compound]	–	–	–	–	–	–	–	–	–	–	–	–	–	–	–	–	–	–	–	–	log P ([6]; free nucleoside, 1-octanol and water, triplicate): 0.99 (0.10); ΔG°37 (Van't Hoff) [7]: -10.2 ± 0.3 kcal; ΔG°37 (avg.) [7]: -10.0 ± 0.2 kcal; ΔG°37 (fits) [7]: -9.9 ± 0.1 kcal; ΔH° (van't Hoff) [7]: -60.2 kcal; ΔS° (Van't Hoff) [7]: −161 eu; Tm [7]: 51.6 °C

Continued, in another order:

Tm [1] [°C]	−ΔG37 ([1]; Van't Hoff plots) [kcal]	−ΔH ([1]; Van't Hoff plots) [kcal]	−ΔS ([1]; Van't Hoff plots) [eu]	−ΔG37 [1, 8] [kcal]	ΔΔG stacking [1]	ΔTm [1] [°C]	Tm [2] [°C]	−ΔG37 ([2]; Van't Hoff plots) [kcal]	−ΔH ([2]; Van't Hoff plots) [kcal]	−ΔS ([2]; Van't Hoff plots) [eu]	−ΔG37 [2, 8] [kcal]	ΔΔG stacking [2]	ΔTm [2] [°C]	−G37 ([3]; marker c) [kcal]	−H ([3]; marker c) [kcal]	−S ([3]; marker c) [eu]	−G37 ([3]; marker d) [kcal]	−H ([4]; marker c) [kcal]	−S ([4]; marker c) [eu]	Molecule	also measured
47.8	9.3 ± 0.2	53.6	143	9.4 ± 0.2	1.3 ± 0.2	7.9	45.3	8.4 ± 0.2	37.3	104	8.6 ± 0.1	0.4 ± 0.1	4.0	8.8	46.7	122	9.0	52.5	142	OC[C@H]1O[C@@H](c2c(F)cc(F)cc2F)C[C@@H]1O [2,4,6-trifluorophenyl, 1′,2′-dideoxy-β-1′-(2,4,6-trifluorophenyl)-D-ribofuranose]	G stacking [3]: 1.3; change in Tm stabilization on moving one fluorine from ortho to meta position [2, 9]: 6.8; change in stabilization free energy on moving one fluorine from ortho to meta position [2, 9]: 1.6 kcal; −G37 ([4]; marker c): 8.4 kcal
50.9	10.7 ± 0.2	76.3	212	9.8 ± 0.2	2.3 ± 0.2	10.0	53.9	10.3 ± 0.2	53.8	93	10.2 ± 0.2	2.2 ± 0.2	12.6	9.1	51.9	138	9.2	57.0	156	OC[C@H]1O[C@@H](c2cc(F)c(F)c(F)c2F)C[C@@H]1O [2,3,4,5-tetrafluorophenyl, 1′,2′-dideoxy-β-1′-(2,3,4,5-tetrafluorophenyl)-D-ribofuranose]	G stacking [3]: 1.5; G stacking [5]: 1.4; −G37 ([5]; marker c): 8.3 kcal; −H ([5]; marker c): 48.4 kcal; −S ([5]; marker c): 129 eu; −G37 ([5]; marker d): 8.3 kcal; ΔΔG stacking (stability contributed) [2]: −2.2 kcalmol^−1; G stacking [4]: 1.7; −G37 ([4]; marker c): 8.8 kcal; −G37 ([4]; marker d): 8.8 kcal; log P [6]: 1.39 (0.10); ΔG°37 (Van't Hoff) [7]: -10.3 ± 0.2 kcal; ΔG°37 (avg.) [7]: -10.2 ± 0.2 kcal; ΔG°37 (fits) [7]: -10.2 ± 0.2 kcal; ΔH° (van't Hoff) [7]: -53.8 kcal; ΔS° (Van't Hoff) [7]: −93 eu; Tm [7]: 53.9 °C; stacks more favorably than parent hydrocarbon [7]: 1.0 kcal/mol
47.3	9.3 ± 0.0	55.2	148	9.3 ± 0.2	1.3 ± 0.1	7.0	44.2	8.5 ± 0.2	39.1	99	8.7 ± 0.1	0.5 ± 0.2	2.9	8.7	48.6	128	8.9	56.5	155	OC[C@H]1O[C@@H](c2c(F)c(F)c(F)c(F)c2F)C[C@@H]1O [pentafluorophenyl, 1′,2′-dideoxy-β-1′-(pentafluorophenyl)-D-ribofuranose]	G stacking [5]: 0.9; −G37 ([5]; marker c): 7.9 kcal; −H ([5]; marker c): 45.0 kcal; −S ([5]; marker c): 120 eu; ΔΔG stacking (stability contributed) [2]: −0.5 kcalmol^−1
